Consider 29 compounds from ChEMBL document CHEMBL3351225, “Design, synthesis, and structure-activity and structure-pharmacokinetic relationship studies of novel [6,6,5] tricyclic fused oxazolidinones leading to the discovery of a potent, selective, and orally bioavailable FXa inhibitor” (J Med Chem, 2014).

The test has as its target Coagulation factor X (Homo sapiens, UniProt P00742). The test can be described thus: Inhibition of human factor 10a using N-Z-D-Arg-Gly-Arg-pNA, S-2765 chromogenic substrate.

Bounds are passed on as bounds.

Coagulation factor X, sequence (P00742 41-179 limits assumed): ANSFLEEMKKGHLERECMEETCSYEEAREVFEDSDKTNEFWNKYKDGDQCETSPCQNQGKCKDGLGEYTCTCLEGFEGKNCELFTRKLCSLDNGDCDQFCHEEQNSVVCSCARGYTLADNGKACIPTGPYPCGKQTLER
Coagulation factor X, sequence (P00742 235-488 limits assumed): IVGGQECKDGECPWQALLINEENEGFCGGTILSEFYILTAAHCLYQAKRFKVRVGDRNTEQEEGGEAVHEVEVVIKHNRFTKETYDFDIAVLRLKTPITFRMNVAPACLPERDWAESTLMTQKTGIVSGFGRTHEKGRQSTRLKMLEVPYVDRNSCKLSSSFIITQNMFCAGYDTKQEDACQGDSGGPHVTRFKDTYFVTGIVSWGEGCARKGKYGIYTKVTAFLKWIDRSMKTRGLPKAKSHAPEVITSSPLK

By IC50 is commonly meant the midpoint of a concentration-inhibition curve. Lower therefore signals greater potency. Turning to `O=C(NC[C@@H]1OC(=O)N2c3ccc(N4CCOCC4=O)cc3OC[C@H]12)c1ccc(Cl)s1`, half-maximal inhibition (IC50) required 0.0578 µM.
As for `CC(=O)N(C)c1ccc2c(c1)OC[C@H]1[C@H](CNC(=O)c3ccc(Cl)s3)OC(=O)N21`, the figure is 0.0872 µM.
As for `O=C(NC[C@@H]1OC(=O)N2c3ccc(N4CCOC4=O)cc3OC[C@@H]12)c1ccc(Cl)s1`, the figure is 0.73 µM; as for `O=C(NC[C@@H]1OC(=O)N2c3ccc(N4CCC5(CC4=O)OCCO5)cc3OC[C@@H]12)c1ccc(Cl)s1`, 2.51 µM; as for `CO[C@@H]1CCN(c2ccc3c(c2)OC[C@H]2[C@H](CNC(=O)c4ccc(Cl)s4)OC(=O)N32)C(=O)C1`, 0.59 µM.
As for `CO[C@H]1CCN(c2ccc3c(c2)OC[C@H]2[C@H](CNC(=O)c4ccc(Cl)s4)OC(=O)N32)C(=O)C1`, the figure is 1.86 µM; as for `O=C(NC[C@@H]1OC(=O)N2c3ccc(N4CC[C@@H](O)CC4=O)cc3OC[C@@H]12)c1ccc(Cl)s1`, 0.13 µM; as for `O=C(NC[C@@H]1OC(=O)N2c3ccc(N4CC[C@H](F)CC4=O)cc3OC[C@@H]12)c1ccc(Cl)s1`, 0.0466 µM.
`O=C(NC[C@@H]1OC(=O)N2c3ccc(N4CC[C@H](O)CC4=O)cc3OC[C@@H]12)c1ccc(Cl)s1` came in with an IC50 of 1.22 µM.
As for `O=C(NC[C@@H]1OC(=O)N2c3ccc(N4CC[C@@H](F)CC4=O)cc3OC[C@@H]12)c1ccc(Cl)s1`, the figure is 0.0406 µM; as for `O=C(NC[C@@H]1OC(=O)N2c3ccc(N4CCNCC4=O)cc3OC[C@@H]12)c1ccc(Cl)s1`, 0.19 µM.
Regarding `CN1CCN(c2ccc3c(c2)OC[C@H]2[C@H](CNC(=O)c4ccc(Cl)s4)OC(=O)N32)C(=O)C1`, the half-inhibitory concentration (IC50) turned out to be 2.21 µM.
As for `CCN1CCN(c2ccc3c(c2)OC[C@H]2[C@H](CNC(=O)c4ccc(Cl)s4)OC(=O)N32)C(=O)C1`, the figure is 15.8 µM; as for `O=C(NC[C@@H]1OC(=O)N2c3ccc(N4CCN(Cc5ccccc5)CC4=O)cc3OC[C@@H]12)c1ccc(Cl)s1`, 11.4 µM.
For `CC(=O)N1CCN(c2ccc3c(c2)OC[C@H]2[C@H](CNC(=O)c4ccc(Cl)s4)OC(=O)N32)C(=O)C1` the value was 0.0748 µM; for `CS(=O)(=O)N1CCN(c2ccc3c(c2)OC[C@H]2[C@H](CNC(=O)c4ccc(Cl)s4)OC(=O)N32)C(=O)C1`, 4.18 µM; for `O=C(NC[C@@H]1OC(=O)N2c3ccc(N4CCN(S(=O)(=O)c5ccccc5)CC4=O)cc3OC[C@@H]12)c1ccc(Cl)s1`, 5.53 µM.
For `O=C(NC[C@@H]1OC(=O)N2c3ccc(N4CCOCC4=O)cc3OC[C@@H]12)c1ccc(Cl)cn1` the value was 0.71 µM; for `COc1ccc(C(=O)NC[C@@H]2OC(=O)N3c4ccc(N5CCOCC5=O)cc4OC[C@@H]23)cc1`, 4.78 µM.
As to `O=C(NC[C@@H]1OC(=O)N2c3ccc(N4CCOCC4=O)cc3OC[C@@H]12)c1cc(Cl)c(Cl)s1`, the IC50 was found to be 8.08 µM.
As for `O=C(NC[C@@H]1OC(=O)N2c3ccc(N4CCOCC4=O)cc3OC[C@@H]12)c1cnc(Cl)s1`, the figure is 7.06 µM.
For `O=C(NC[C@@H]1OC(=O)N2c3ccc(N4CCOCC4=O)cc3OC[C@@H]12)c1cc2cccc(Cl)c2s1` the value was above 100 µM; for `O=C(NC[C@@H]1OC(=O)N2c3ccc(N4CCOCC4=O)cc3OC[C@@H]12)c1cc2ccc(Cl)cc2s1`, 1.75 µM.
For `O=C(NC[C@@H]1OC(=O)N2c3ccc(N4CCOCC4=O)cc3OC[C@@H]12)c1cc2cc(Cl)ccc2s1` the value was 25.9 µM.
`O=C(NC[C@@H]1OC(=O)N2c3ccc(N4CCOCC4=O)cc3OC[C@@H]12)c1cc2c(Cl)cccc2s1`: the concentration for half-maximal inhibition (IC50) was above 100 µM.
As for `O=C(NC[C@@H]1OC(=O)N2c3ccc(N4CCOCC4=O)cc3OC[C@@H]12)c1sc2cc(Cl)ccc2c1Cl`, the figure is above 100 µM; as for `O=C(CSCCCl)NC[C@@H]1OC(=O)N2c3ccc(N4CCOCC4=O)cc3OC[C@@H]12`, above 100 µM; as for `O=C(NC[C@@H]1OC(=O)N2c3ccc(N4CCOCC4=O)cc3OC[C@@H]12)C(Cl)Cl`, 52.7 µM.
As for `O=C(NC[C@@H]1OC(=O)N2c3ccc(N4CCOCC4=O)cc3OC[C@@H]12)Nc1ccc(Cl)s1`, the figure is 0.0885 µM.
